The values below come from PMC6271891, “Exploration of Piperidinols as Potential Antitubercular Agents” (Molecules, 2014).

The test system of series [1] is M. tuberculosis strain H37Rv. The series can be described thus: Mycobacterial growth inhibition, spot culture on solid medium, M. tuberculosis H37Rv. The format is cell-based. Conditions: Mycobacterium tuberculosis, 336 h, read-out: MIC M. tuberculosis.
The target of series [2] is T1, MMNAT (Mycobacterium marinum, UniProt B2HIZ6). The series can be described thus: NAT inhibition assay (CoA formation), MMNAT. The format is biochemical. Conditions: for inhibition at 50 µM: read-out: MMNAT % Inhibition. Here is the method: (§1) The NAT enzymes from M. smegmatis, S. typhimurium, P. aeruginosa, M. marinum, M. tuberculosis, hamster NAT2 [45] and human NAT1 [46] were produced as recombinant proteins, purified as previously described and stored at −80 in 20 mM Tris-HCl pH 8 containing 1 mM dithiothreitol and 5% glycerol and thawed and used within 1–5 h.
T1 sequence (B2HIZ6 entry or part of it): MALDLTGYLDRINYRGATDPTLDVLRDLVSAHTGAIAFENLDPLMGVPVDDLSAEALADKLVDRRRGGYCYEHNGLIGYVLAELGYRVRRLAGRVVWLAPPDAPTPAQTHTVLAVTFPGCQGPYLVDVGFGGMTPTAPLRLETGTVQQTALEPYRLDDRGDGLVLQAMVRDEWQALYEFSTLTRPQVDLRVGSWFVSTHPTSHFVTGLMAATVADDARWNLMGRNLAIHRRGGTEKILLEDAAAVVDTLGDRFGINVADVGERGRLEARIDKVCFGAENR
(§2) An assay for measuring the formation of CoA [23] was modified and used to determine the activity of the enzyme in the presence of potential inhibitors exactly as described previously. Irreversible inhibition, progressive with time was measured for the piperidinol inhibitors by the protocol described in [13] and the values of the apparent first order rate constant (kobs) were determined using the Kitz and Wilson model. Adduct formation was determined as previously described by mass spectroscopy analysis.

The test system of series [3] is M. bovis BCG. The series is described as follows: microbe, parasite or virus in culture. Type of series: cell-based. Conditions: Mycobacterium tuberculosis variant bovis BCG, 336 h, read-out: MIC M. bovis BCG.
Series [4] addresses T1, MMNAT. The series can be described thus: Time-dependent (irreversible) inactivation of MMNAT by the piperidinols. Type of series: biochemical. As to conditions: for kobs: 24 °C, mean ± S.D. of triplicate; for t1/2, apparent inactivation half-life: t1/2 = 0.693/kobs. Here is the method:
as §2
Figure S1. The time-dependent inhibition of the MMNAT by the piperidinols (A) compounds 1, 3, 4, 6 at 11.9 μM concentration (B) 5, 7 at 5.9 μM concentration and (C) 8, […]
Semi-logarithmic plots showing the time-dependent inactivation of MMNAT by (A) compounds 1, 3, 4, 6 at 11.9 μM concentration (B) 5, 7 at 5.9 μM concentration and (C) 8, 9 (11.9 μM), 10 (23.8 μM) and 11 (5.9 μM). The enzyme activity was measured using the protocol described in [1]. The results are presented as the mean ± S.D. of triplicate measurements. The error bars are within the symbols.
The residual activity is shown as a percentage of a control. The data were fitted against the incubation time using the Semilog line (X is linear, Y is Log) module of GraphPad Prism 5.0. The slope of each line is equivalent to (−kobs/2.303) at each inhibitor concentration. […]

Series [5] concerns the target T2, TBNAT (Mycobacterium tuberculosis, UniProt P9WJI5).
T2 construct: made in house
The series is described as follows: NAT inhibition assay (CoA formation), TBNAT. Conditions: for inhibition at 50 µM: read-out: TBNAT % Inhibition; for IC50: inhibitor 0–250 μM. Type of series: biochemical, M. tuberculosis. The protocol:
as §1, §2

Series [6] deals with RAW 264.7 cells. Conditions: up to 50 μg/mL inhibitor concentration.
In series [7] the test system is mycobacteria. Further details: method as in PMID 23285185. As to conditions: cited from earlier work.
Series [8] deals with M. bovis BCG str. Pasteur (ATCC 35734). The series is described as follows: microbe, parasite or virus in culture. As to conditions: Mycobacterium tuberculosis variant bovis BCG, read-out: MIC against M. bovis BCG. Type of series: cell-based.
Where [9] appears, read: strain H37Rv, solid medium 7H10-OADC, no growth after 2 weeks.
Where [10] appears, read: 50 μM inhibitor, 150 μM HLZ and 120 μM Ac-CoA, mean ± S.D. of triplicate.
Where [11] appears, read: 150 μM HLZ and 120 μM Ac-CoA, inhibitor 0–250 μM, mean ± S.D. of triplicate, read-out: MMNAT IC50 HLZ.
Setting [12] is: 5ASA as substrate, mean ± S.D. of triplicate, read-out: MMNAT IC50 5ASA.
Where [13] appears, read: 150 μM HLZ and 120 μM Ac-CoA, mean ± S.D. of triplicate.

The structures appear in SMILES notation. Values after ≈ are worked out from the molar mass of the structure shown. Values joined by “and” are separate entries in the source; they are usually repeats but may differ in a detail not shown here. Equal entries are not always repeated. Where two headings read alike, the source gives them in different places.

T2 sequence (P9WJI5 whole entry): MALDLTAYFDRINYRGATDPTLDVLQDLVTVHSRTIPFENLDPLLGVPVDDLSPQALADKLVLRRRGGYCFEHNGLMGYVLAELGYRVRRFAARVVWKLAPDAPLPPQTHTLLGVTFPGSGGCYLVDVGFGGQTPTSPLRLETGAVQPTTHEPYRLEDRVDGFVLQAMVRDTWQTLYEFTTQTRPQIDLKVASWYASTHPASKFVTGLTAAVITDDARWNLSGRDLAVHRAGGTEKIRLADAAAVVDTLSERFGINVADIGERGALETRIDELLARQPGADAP

As usually defined, the inhibition is the change of the read-out against control, counted positive when it falls. The IC50 is the point on the concentration scale where inhibition reaches its midpoint. As for `CCN1CCC(O)(c2ccccc2)C(C(=O)c2ccccc2)C1` (stereo not shown) [Compound 4], the MIC fell in the range of 5 to 10 µg/mL (≈ 16.2 to 32.3 µM) in series [1] (setting [9]) and 6.3 to 12.5 µg/mL (≈ 20.4 to 40.4 µM) in series [3]. For the same compound, the inhibition at 50 µM in series [2] (setting [10]) turned out to be 126 ± 5%; in series [5] (setting [10]) it was 72 ± 4%. Besides, the 50% inhibitory concentration (IC50) was 1900 nM in series [2] (setting [11]), 8000 ± 1000 nM in series [2] (setting [12]) and 7300 ± 300 nM in series [5] (setting [13]). Besides, the kobs in series [4] (inhibitor 11.9 μM) is recorded as 15 ± 1 10^−3 min^−1. Further, the “t1/2, apparent inactivation half-life” value in series [4] (inhibitor 11.9 μM) came out at 45.6 min.

Regarding `CC1(C)CC(N2CCC(O)(c3ccccc3)C(C(=O)c3ccccc3)C2)CC(C)(C)N1` (stereo not shown) [Compound 11], in series [1] (setting [9]), the MIC was in the range of 1 to 5 µg/mL (≈ 2.38 to 11.9 µM). Further, the half-maximal inhibitory concentration (IC50) in series [2] (setting [12]) was 1100 ± 300 nM. The MIC in series [3] fell in the range of 6.3 to 12.5 µg/mL (≈ 15 to 29.7 µM). Further, the “Cytotoxic effect on RAW 264.7 cells” value in series [6] was “no cytotoxicity was observed”. In series [4] (inhibitor 5.9 μM), the kobs is 34 ± 1 10^−3 min^−1 and the “t1/2, apparent inactivation half-life” value came to 20.2 min.

As for `O=C(c1ccccc1)C1CN(C2CCS(=O)(=O)C2)CCC1(O)c1ccccc1` (stereo not shown) [Compound 10], the inhibition at 50 µM is 99 ± 0.7% in series [2] (setting [10]) and 47 ± 2% in series [5] (setting [10]). The values for the IC50 in series [2] (setting [11]) and in series [2] (setting [12]) were 13000 ± 1000 nM and greater than 30000 nM, respectively. In series [3], the MIC was 3.1 to 6.3 µg/mL (≈ 7.76 to 15.8 µM). In series [4] (inhibitor 23.8 μM), the kobs was 19 ± 1 10^−3 min^−1. Besides, in series [4] (inhibitor 23.8 μM), the “t1/2, apparent inactivation half-life” value amounted to 37.1 min.

As to `CN1CCC(O)(c2ccc(Cl)cc2)C(C(=O)c2ccc(Cl)cc2)C1` (stereo not shown) [Compound 2], the inhibition at 50 µM in series [2] (setting [10]) was 103 ± 2%; in series [5] (setting [10]), 98 ± 1%. Also, the concentration for half-maximal inhibition (IC50) was found to be 160 ± 10 nM in series [2] (setting [11]), 1400 ± 600 nM in series [2] (setting [12]) and 1600 ± 100 nM in series [5] (setting [13]). In addition, the MIC in series [3] was 6.3 to 12.5 µg/mL (≈ 17.3 to 34.3 µM). Further, the kobs in series [4] (inhibitor 11.9 μM) was 110 ± 2 10^−3 min^−1. Further, in series [4] (inhibitor 11.9 μM), the “t1/2, apparent inactivation half-life” value came out at 6.3 min.

`O=C(c1ccccc1)C1CN(Cc2ccccc2)CCC1(O)c1ccccc1` (stereo not shown) [Compound 8]: the results for the MIC in series [1] (setting [9]) and in series [3] were 0 to 1 µg/mL and 6.3 to 12.5 µg/mL (≈ 17 to 33.6 µM), respectively. Also, the figures for the inhibition at 50 µM in series [2] (setting [10]) and in series [5] (setting [10]) were 101 ± 1% and 58 ± 2%, respectively. Moreover, the IC50 in series [2] (setting [11]) stood at 4100 ± 400 nM. In series [4] (inhibitor 11.9 μM), the kobs is 10 ± 1 10^−3 min^−1. In series [4] (inhibitor 11.9 μM), the “t1/2, apparent inactivation half-life” value was determined as 71.4 min.

As for `CN1CCC(O)(c2ccccc2)C(C(=O)c2ccccc2)C1` (stereo not shown) [Compound 1], the MIC was 1 to 10 µg/mL (≈ 3.39 to 33.9 µM) in series [1] (setting [9]) and 6.3 to 12.5 µg/mL (≈ 21.3 to 42.3 µM) in series [3]. Further, in series [2] (setting [12]), the IC50 was 6000 ± 1000 nM. Further, the “Cytotoxic effect on RAW 264.7 cells” value in series [6] is recorded as “no cytotoxicity was observed”. The kobs in series [4] (inhibitor 11.9 μM) was 9 ± 2 10^−3 min^−1. Moreover, the “t1/2, apparent inactivation half-life” value in series [4] (inhibitor 11.9 μM) is on record as 81.5 min. The “MIC (antimycobacterial)” value in series [7] was less than 5 µg/mL.

For the compound `O=C(c1ccccc1)C1CN(C2CCCCC2)CCC1(O)c1ccccc1` (stereo not shown) [Compound 7], the MIC in series [1] (H37RV) fell in the range of 1 to 5 µg/mL (≈ 2.75 to 13.8 µM). Moreover, in series [2] (setting [12]), the IC50 is 1700 ± 200 nM. Moreover, the MIC in series [3] was in the range of 6.3 to 12.5 µg/mL (≈ 17.3 to 34.4 µM). Besides, in series [4] (inhibitor 5.9 μM), the kobs is listed as 573 ± 25 10^−3 min^−1 and the “t1/2, apparent inactivation half-life” value was determined as 1.2 min.

For `O=C(c1ccccc1)C1CN(C2CCCO2)CCC1(O)c1ccccc1` (stereo not shown) [Compound 9], the MIC in series [1] (setting [9]) lay within 0 to 1 µg/mL. In addition, the inhibition at 50 µM stood at 100.8 ± 0.5% in series [2] (setting [10]) and 51 ± 3% in series [5] (setting [10]). In addition, the IC50 in series [2] (setting [11]) worked out at 2500 ± 300 nM; in series [2] (setting [12]), 9000 ± 900 nM. Also, the kobs in series [4] (inhibitor 11.9 μM) is 163 ± 39 10^−3 min^−1. Further, the “t1/2, apparent inactivation half-life” value in series [4] (inhibitor 11.9 μM) is reported as 4.2 min.

Turning to `C=CCC(O)(CCN1CCOCC1)c1ccc(F)cc1` (stereo not shown) [Compound 16], the half-maximal inhibitory concentration (IC50) in series [2] (setting [11]) worked out at 6400 ± 600 nM. Also, the inhibition at 50 µM in series [2] is 99 ± 1%; in series [5], -14 ± 3%.

`OC(CCN1CCCCC1)c1ccc2c(c1)OCO2` (stereo not shown) [Compound 15]: the IC50 stood at 1000 ± 100 nM in series [2] (setting [11]) and 20000 ± 3000 nM in series [5] (setting [13]). Besides, the inhibition at 50 µM in series [2] turned out to be 103 ± 3%; in series [5], 86 ± 2%. Besides, the MIC in series [8] was 125 µM to 250 µM and 33 µg/mL to 66 µg/mL.

As to `CCN1CCC(O)(c2ccc(F)cc2)C(C(=O)c2ccc(F)cc2)C1` (stereo not shown) [Compound 5], the MIC in series [1] (setting [9]) was 5 to 10 µg/mL (≈ 14.5 to 29 µM); in series [3], 6.3 to 12.5 µg/mL (≈ 18.2 to 36.2 µM). For the same compound, the inhibition at 50 µM amounted to 102 ± 3% in series [2] (setting [10]) and 108 ± 1% in series [5] (setting [10]). Also, the half-maximal inhibitory concentration (IC50) in series [2] (setting [11]) was 500 nM; in series [2] (setting [12]), 1300 ± 500 nM; in series [5] (setting [13]), 4400 nM. In addition, the kobs in series [4] (inhibitor 5.9 μM) is on record as 638 ± 120 10^−3 min^−1. Besides, the “t1/2, apparent inactivation half-life” value in series [4] (inhibitor 5.9 μM) was determined as 1.1 min.

With `CCCCN1CCC(O)(c2ccccc2)C(C(=O)c2ccccc2)C1` (stereo not shown) [Compound 6], the MIC fell in the range of 1 to 5 µg/mL (≈ 2.96 to 14.8 µM) in series [1] (setting [9]) and 6.3 to 12.5 µg/mL (≈ 18.7 to 37 µM) in series [3]. The inhibition at 50 µM is 102 ± 3% in series [2] (setting [10]) and 100 ± 3% in series [5] (setting [10]). Also, the IC50 was 2600 ± 1000 nM in series [2] (setting [11]), 5000 ± 400 nM in series [2] (setting [12]) and 6900 ± 400 nM in series [5] (setting [13]). The kobs in series [4] (inhibitor 11.9 μM) is on record as 104 ± 8 10^−3 min^−1. The “t1/2, apparent inactivation half-life” value in series [4] (inhibitor 11.9 μM) is 6.6 min.

`CN1CCC(O)(c2ccc(Br)cc2)C(C(=O)c2ccc(Br)cc2)C1` (stereo not shown) [Compound 3]: the MIC fell in the range of 5 to 10 µg/mL (≈ 11 to 22.1 µM) in series [1] (setting [9]) and 6.3 to 12.5 µg/mL (≈ 13.9 to 27.6 µM) in series [3]. Besides, the inhibition at 50 µM amounted to 99 ± 1% in series [2] (setting [10]) and 98 ± 3% in series [5] (setting [10]). The concentration for half-maximal inhibition (IC50) worked out at 80 ± 10 nM in series [2] (setting [11]), 1300 ± 400 nM in series [2] (setting [12]) and 2900 ± 400 nM in series [5] (setting [13]). The kobs in series [4] (inhibitor 11.9 μM) is 74 ± 7 10^−3 min^−1. In series [4] (inhibitor 11.9 μM), the “t1/2, apparent inactivation half-life” value is 9.4 min.
